From US20220202882A1, “EFFECT OF COMBINATION OF BIFIDOBACTERIUM AND BERBERINE ON PRE-DIABETES AND TYPE 2 DIABETES” (The Fourth Military Medical University, priority 2018, published 2022)
Structures can show the parent of a compound that is named as a salt.

Experiments:
[1] = tested on: pre-diabetic and type 2 diabetes mellitus patients; test: Clinical trial: blood lipids (total cholesterol, HDL, LDL); type: in vivo, human; settings: for Effect on total cholesterol level (in words) / High-density lipoprotein change, mean value / Post-treatment low-density lipoprotein - pre-treatment low-density lipoprotein, mean value / Post-treatment total cholesterol - pre-treatment total cholesterol, mean value: 16 weeks of treatment; for Effect on total cholesterol level (in words): Kruskal-Wilcox test; for Post-treatment low-density lipoprotein, mean value / Post-treatment total cholesterol, mean value: after 16 weeks of treatment; for Pre-treatment low-density lipoprotein, mean value / Pre-treatment total cholesterol, mean value: baseline before treatment
Description: (§1) From June 2015 to October 2018, a double-blind, randomized, and parallel-controlled trial, studying the effects of the combined use of Bifidobacterium and berberine on pre-diabetic and type 2 diabetes mellitus patients, was conducted in 10 research centers in Xi'an, Yan'an and Shangluo of Shaanxi province, etc., including the First Affiliated Hospital of the Fourth Military Medical University. The trial included an enrollment stage of 2 weeks and a treatment stage of 16 weeks. After passing the first visit 1 (see V1 in Table 1), the subjects entered the enrollment stage, i.e., 2 weeks of lifestyle intervention, followed by a re-screening (see V2 in Table 1). The subjects were subjected to a 16-week course of treatment after passing the screening. See Table 1 for the detailed screening parameters. After the enrollment stage, the baseline data of the 300 successfully enrolled subjects were collected. Meanwhile, the subjects started to receive lifestyle guidance, and were randomly divided into four groups for 16 weeks of treatments. 1) Bifidobacterium group: the subjects were administered with Bifidobacterium capsules (Livzon Pharmaceutical Group Inc., batch no.: 20141013), 0.35 g/capsule, each capsule containing 50,000,000 viable bacteria (Bifidobacterium adolescentis DM8504), 2 capsules/time, 2 times/day, plus berberine placebo tablets (Northeast Pharma Group Shenyang First Pharma Co., Ltd., Lot no.: 20150101, containing 80.2% microcrystalline cellulose, 9.4% pregelatinized starch, 6.4% sodium carboxymethyl starch, 1% magnesium stearate, and 3% copovidone), 0.1 g/tablet, 5 tablets/time, 2 times/day. 2) Berberine group: the subjects were administered with berberine tablets (Northeast Pharma Group Shenyang First Pharma Co., Ltd., Lot no.: 130917, each tablet weighted 0.165 g and contained 0.1 g active berberine ingredient (berberine hydrochloride), with the same excipients as the placebo tablets), 5 tablets/time, 2 times/day, plus Bifidobacterium placebo capsules (Livzon Pharmaceutical Group Inc., Lot no.: 141001, specifically containing 0.348 g spray-dried lactose, and 0.002 g magnesium stearate), 0.35 g/capsule, 2 capsules/time, 2 times/day. 3) Combination Group: the subjects were administered with Bifidobacterium capsules, 0.35 g/capsule, each capsule containing 50,000,000 viable bacteria (B. adolescentis DM8504), 2 capsules/time, 2 times/day, plus berberine tablets, 0.1 g/tablet, each tablet containing 0.1 g active berberine ingredient (berberine hydrochloride), 5 tablets/time, 2 times/day. 4) Control group: the subjects were administered with Bifidobacteria placebo capsules, 0.35 g/capsule, 2 capsules/time, 2 times/day, plus berberine placebo tablets, 0.1 g/tablet, 5 tablets/time, 2 times/day. Bifidobacterium capsules were taken after meals and berberine tablets were taken before meals. Tests of all samples in the study were carried out in a designated laboratory with standardized criteria. Blood analysis covered hundreds of indicators including insulin, amino acids, cytokines etc. After the sample testing was finished, 1) Chi-Squared test and t-test were used to evaluate the intergroup balance of the baseline data including the demographic characteristics and pre-treatment indicators, wherein the baseline data referred to those collected at the second visit, before the formal administration, the data collected at the first visit on the enrollment stage were used instead if the data at the second visit was lacking; 2) two-way disordered CM-CH11, Kruska-Wilcox test, etc. were used for analysis and intergroup comparison of pre- and post-treatment indicators such as fasting plasma glucose (FPG), HbA1c, plasma glucose at 2 hours post OGTT (2-h PPG), blood pressure, blood lipids, body weight and BMI; 3) adverse events and hypoglycemia events were described in terms of the type, frequency and relevance with the drugs, for safety evaluation. Software SAS 9.1.3 was used for statistical analysis with all analysis processes being programmed. […]

[2] = tested on: pre-diabetic and type 2 diabetes mellitus patients; test: Clinical trial: ketone level in urine; type: in vivo, human; settings: for Effect on urine ketone body level (in words) / Post-treatment ketone level in urine - pre-treatment ketone level in urine, mean value: 16 weeks of treatment; for Post-treatment ketone level in urine - pre-treatment ketone level in urine, mean value / Post-treatment ketone level in urine, mean value / Pre-treatment ketone level in urine, mean value: FAS; for Post-treatment ketone level in urine, mean value: after 16 weeks of treatment; for Pre-treatment ketone level in urine, mean value: baseline before treatment
Description: as §1

Molecule | Effect on total cholesterol level (in words) [1] | High-density lipoprotein change, mean value ([1]; FAS) [mmol/L] | Post-treatment low-density lipoprotein - pre-treatment low-density lipoprotein, mean value ([1]; FAS) [mmol/L] | Post-treatment total cholesterol - pre-treatment total cholesterol, mean value ([1]; FAS) [mmol/L] | Post-treatment low-density lipoprotein, mean value ([1]; FAS) [mmol/L] | Post-treatment total cholesterol, mean value ([1]; FAS) [mmol/L] | Pre-treatment low-density lipoprotein, mean value ([1]; FAS) [mmol/L] | Pre-treatment total cholesterol, mean value ([1]; FAS) [mmol/L] | High-density lipoprotein change, mean value ([1]; PPS) [mmol/L] | Effect on urine ketone body level (in words) [2] | Post-treatment ketone level in urine - pre-treatment ketone level in urine, mean value [2] | Post-treatment ketone level in urine, mean value [2] | Pre-treatment ketone level in urine, mean value [2]
Bifidobacterium | did not have evident total cholesterol lowing effect | 0.03 | -0.00247 | 0.0219 | 2.9 | 4.8100 | 2.85 | 4.7600 | 0.03 | not observed | −0.0909 | 0.0341 | 0.1100
COc1ccc2cc3[n+](cc2c1OC)CCc1cc2c(cc1-3)OCO2 [Berberine, berberine hydrochloride] | significantly reduce the total cholesterol level | 0.00 | -0.15 | -0.2770 | 2.76 | 4.6400 | 2.99 | 5.0200 | -0.00 | not observed | 0.0526 | 0.0513 | 0.0000
